From patent US4487763A, “Peptide, process for preparation thereof and use thereof” (Fujisawa Pharmaceutical Co., Ltd., priority 1979, dated 1984)

Experiments:
[1] = system: Mice (DDY male 5-6 W); assay: Blood stream clearance of carbon; assay type: in vivo; settings: carbon clearance measured 24 hours later
Experimental: 1. Carbon suspension. Rotoring drawing ink (170 mg carbon/ml.) was diluted to 1/5 of the original concentration in saline containing 1% gelatin. 2. 0.1% aqueous sodium carbonate solution. Mice (DDY male 5-6 W) were injected via the tail vein with a dose of 0.01 ml/g body weight of carbon. Blood samples were taken by means of a pointed capillary […] calibrated to hold a 50 μl and previously washed in heparin. This was plunged into the retroorbital venous sinus at the nasal angle of the eye. The samples were removed at 3 and 6 min. The blood was immediately discharged into 3.0 ml. of the sodium carbonate solution. This hemolyzed the blood and allowed the quantitation of carbon. The samples were then read in a spectrophotometer at 660 nm, the log concentration being obtained from a previously determined standard curve. The clearance value K may be determined by plotting log carbon concentration against time according to the following relationship; [formula] in which T1 and T2 represent the time in min when the sample were withdrawn and C1 and C2 represent the concentrations of carbon in the blood at the time T1 and T2, respectively. The aqueous solution of the drug as given was administered subcutaneously to mice. Twenty four hours later, blood stream clearance of carbon was measured. K value obtained with treated mice was compared with that of control mice.

[2] = system: E. coli 22; assay: Protective efficacy in experimental infection in mice; assay type: in vivo; settings: male ICR mice, survival after four days
Experimental: In determining the protective efficacy against experimental infections in mice, the test compound was dissolved in and diluted with sterile saline to provide prescribed concentrations of drug.
Male ICR-strain mice, aged 4 weeks were used in groups of ten mice. E. coli 22 was cultivated overnight at 37° C. on trypticase soy agar and then were suspended in a sterile saline to obtain microbial cell concentration of 9.0×10^7 CFU/ml. Mice were inoculated intraperitoneally with 0.2 ml of the suspension. Each of the test drugs was given intraperitoneally in various doses to a group of ten mice 24 hours before challenge.
Survival percent were found from the number of the surviving animals after four days of injection.

D-Lac-L-Ala-γ-D-Glu(α-OH)-(L)-[D-Lac-L-Ala-γ-D-Glu(α-OH)-(L)-mesoDAP-(D)-Gly]-(D)-mesoDAP-(L)-GlyOH [Example 13 (Step 2)]
K treated/K control ([1]; dose 1 mg/mouse subcutaneously): 0.6 | K treated/K control ([1]; dose 100 mg/mouse subcutaneously): 1.6 | Survival (%) ([2]; dose 1 mg/kg intraperitoneally 24 hours before challenge): 100% | Survival (%) ([2]; dose 10 mg/kg intraperitoneally 24 hours before challenge): 100%
